According to patent publication US11311538B2, “Compositions and methods for targeting cancers” (YALE UNIVERSITY, priority 2018, dated 2022):

Experiments:
[1] = system: U2OS DR-GFP cells; assay: U2OS DR-GFP HR assay; type: cell-based; conditions: for suppression of HR, DR-GFP assay: metabolite added to cell culture medium, 24 h (FIG. 3A)
[2] = system: HEK293FT and YUNK1 cells; assay: Clonogenic survival assay, PARP inhibitors, knockdown or metabolite-treated cells; type: cell-based, human
[3] = system: UOK 262; assay: Neutral comet assay in UOK 262 HLRCC cells; type: cell-based, human; conditions: for levels of DNA DSBs after exogenous metabolite: FH-deficient UOK 262 cells, 24 h (FIG. 3H)
[4] = system: UOK 268; assay: Neutral comet assay in UOK 268 HLRCC cells; type: cell-based, human; conditions: for levels of DNA DSBs after exogenous metabolite: FH-deficient UOK 268 cells, 24 h (FIG. 3H)
[5] = system: KDM4A and KDM4B; assay: Western blot of histone trimethylation (KDM4A/B activity) in YUNK1 cells; type: cell-based, human; conditions: increasing doses, 24 h (FIGS. 7E-7F)
Method: Western Blot analyses. Western blot analysis of protein levels was conducted by loading 30 μg of whole cell lysate onto a 4-20% polyacrylamide gel. Total protein was transferred to a nitrocellulose membrane. After blocking with 5% milk, membranes were incubated with primary antibodies. Antibodies used were: Rabbit monoclonal anti-Fumarase (D9C5,Cell Signaling Technologies) 1:1000 in 5% BSA, mouse monoclonal anti-SDHB (21A11AE7, Abcam) 1:1000 in % 5 milk, mouse monoclonal anti-Vinculin (SPM227, Abcam) 1:1000 in 5% milk, rabbit polyclonal anti-Histone 3 Lysine 36 trimethyl (9050, Abcam) 1:500 in 5% BSA, anti-Histone 3 Lysine 9 trimethyl (D4W1U, Cell Signaling Technologies) 1:1000 in 5% BSA, mouse monoclonal anti-Beta Actin (60008, Protein Tech) 1:5000 5% milk, rabbit Polyclonal anti-Histone H3 (ab1791, Abcam 1:5000 5% BSA), rabbit Polyclonal anti-PAR (4336-BPC-100, Trevigen) 1:5000 5% BSA, mouse monoclonal anti-GAPDH (60004 Protein Tech) 1:5000 5% milk, mouse monoclonal anti-BRCA2 (ab1, Millipore, 1:1000 5% Milk), mouse monoclonal anti-BRCA1 (D-9, Santa Cruz, 1:200 5% milk), mouse monoclonal anti-RAD51(14B4 Novus bio, 1:1000 5% milk). Patient sample blots were reprobed. Reprobed blots were stripped with Restore Plus Stripping Buffer (Thermo Fischer) and re-blocked with 5% milk prior to reprobing. Blots were tested to ensure all residual detection reagents were removed. Dual Color Precision Plus Protein standard was used as a molecular weight standard for western blots. Cell Culture. YUNK1 cells were generated in culture from uninvolved cortical renal tissue from a patient undergoing a radical nephrectomy for kidney cancer. […] YUNK1 was immortalized with a lentiviral vector containing SV40 Large T antigen (Addgene plasmid #22298). Lentiviral production was performed using HEK293FT (ATCC) using plasmids pMDLg/pRRE, pRSV-Rev, pCMV-VSG-G (Addgene #12251, 12253, and 8454). YUNK1 cells were maintained in DMEM+10% FBS+1% Pen/Strep. HEK293FT cells (ATCC) were maintained in DMEM+10% FBS+1% Pen/Strep. After lentiviral infections with TRIPZ-shRNA or GIPZ lentiviruses, cells were maintained in DMEM+10% FBS+1% Pen/Strep+2 μg/mL Puromycin. For dox inducible shRNAs, expression was induced with 2 μg/mL doxycycline. Doxycycline induced knockdown was monitored by western blot as well as by RFP fluorescence from the internal and dox-inducible reporter on the TRIPZ construct. U2OS DR-GFP cells were maintained in DMEM+10% FBS+1% Pen/Strep. UOK 262 and UOK 268 HLRCC cells are previously described in Yang, et al., 2010, Cancer Gent. Cytogent. 196:45-55; Yang, et al., 205, Cancer Genet. 205:377-390. They were obtained courtesy of W. M. Linehan and were maintained in DMEM+10% FBS+1% Pen/Strep+1 mM Sodium-Pyruvate. NCCFH1 cells were maintained in DMEM+10% FBS+1% Pen/Strep+1 mM Sodium-Pyruvate. […]

[6] = system: HEK293FT shSDHB / shFH / shCTRL cells; assay: Clonogenic survival assay, DNA damaging agents, SDHB or FH knockdown cells; type: cell-based, human; conditions: SDHB or FH knockdown cells compared to control shRNA
Method: (§1) Western Blot analyses. Western blot analysis of protein levels was conducted by loading 30 μg of whole cell lysate onto a 4-20% polyacrylamide gel. Total protein was transferred to a nitrocellulose membrane. After blocking with 5% milk, membranes were incubated with primary antibodies. Antibodies used were: Rabbit monoclonal anti-Fumarase (D9C5,Cell Signaling Technologies) 1:1000 in 5% BSA, mouse monoclonal anti-SDHB (21A11AE7, Abcam) 1:1000 in % 5 milk, mouse monoclonal anti-Vinculin (SPM227, Abcam) 1:1000 in 5% milk, rabbit polyclonal anti-Histone 3 Lysine 36 trimethyl (9050, Abcam) 1:500 in 5% BSA, anti-Histone 3 Lysine 9 trimethyl (D4W1U, Cell Signaling Technologies) 1:1000 in 5% BSA, mouse monoclonal anti-Beta Actin (60008, Protein Tech) 1:5000 5% milk, rabbit Polyclonal anti-Histone H3 (ab1791, Abcam 1:5000 5% BSA), rabbit Polyclonal anti-PAR (4336-BPC-100, Trevigen) 1:5000 5% BSA, mouse monoclonal anti-GAPDH (60004 Protein Tech) 1:5000 5% milk, mouse monoclonal anti-BRCA2 (ab1, Millipore, 1:1000 5% Milk), mouse monoclonal anti-BRCA1 (D-9, Santa Cruz, 1:200 5% milk), mouse monoclonal anti-RAD51(14B4 Novus bio, 1:1000 5% milk). Patient sample blots were reprobed. […] Doxycycline induced knockdown was monitored by western blot as well as by RFP fluorescence from the internal and dox-inducible reporter on the TRIPZ construct. […]

[7] = system: UOK 262; assay: Clonogenic survival assay in cell lines of renal origin; type: cell-based, human; conditions: FIG. 4C (BMN-673), FIG. 8J (mitomycin C)
[8] = system: HEK293FT cells; assay: Immunofluorescence foci assay in HEK293FT cells; type: cell-based, human; conditions: metabolite added to culture media (FIGS. 3E-3G)
Method: as §1

[9] = system: YUNK1 cells; assay: Immunofluorescence foci assay in YUNK1 cells; type: cell-based, human
Method: as §1

CCOC(=O)CCC(=O)O [monoethyl-succinate]
suppression of HR, DR-GFP assay [1]: sufficient to suppress HR in a dose-dependent manner

COC(=O)CCC(=O)OC [dimethyl-succinate]
suppression of HR, DR-GFP assay [1]: sufficient to suppress HR in a dose-dependent manner

O=C(c1cc(Cc2n[nH]c(=O)c3ccccc23)ccc1F)N1CCN(C(=O)C2CC2)CC1 [olaparib]
sensitivity to the PARP inhibitor, clonogenic survival ([2]; knockdown of SDHB and FH or exogenous dimethyl-fumarate or succinate (FIGS. 4A-4B, 8E-8I)): dramatic sensitivity

O=C(O)/C=C/C(=O)O [fumarate]
levels of DNA DSBs after exogenous metabolite [3]: no further effect | levels of DNA DSBs after exogenous metabolite [4]: no further effect | H3K9me3 levels [5]: dose-dependent increase | H3L36me3 levels [5]: dose-dependent increase

CCOC(=O)/C=C/C(=O)O [monoethyl-fumarate]
suppression of HR, DR-GFP assay [1]: sufficient to suppress HR in a dose-dependent manner

COC(=O)CCC(=O)C(=O)OC [αKG, dimethyl-α-ketoglutarate]
rescue of HR defect induced by succinate or fumarate, DR-GFP assay ([1]; co-treatment with dimethyl-succinate or dimethyl-fumarate (FIG. 3L)): rescued | rescue of elevated DSB phenotype (comet assay) ([3]; FH deficient UOK 262 cells, 2 mM dimethyl-α-ketoglutarate (FIG. 3J)): rescued the phenotype | rescue of elevated DSB phenotype (comet assay) ([4]; FH deficient UOK 268 cells, 2 mM dimethyl-α-ketoglutarate (FIG. 3J)): rescued the phenotype

CO[C@@]12[C@H](COC(N)=O)C3=C(C(=O)C(C)=C(N)C3=O)N1C[C@@H]1N[C@@H]12 [mitomycin C]
clonogenic survival in response to DNA damaging agent [6]: substantially reduced survival | sensitivity of UOK 262 relative to FH-proficient cell lines of renal origin, clonogenic survival [7]: markedly more sensitive

O=C(O)CCC(=O)O [succinate]
suppression of HR, DR-GFP assay [1]: sufficient to suppress HR in a dose-dependent manner | p53BP1 foci [8]: Increases | γH2AX foci [8]: Increases | γH2AX foci ([9]; 24 h (FIGS. 6I-6J)): Increases | p53BP1 foci ([9]; 24 h (FIGS. 6K-6L)): Increases | levels of DNA DSBs after exogenous metabolite [3]: no further effect | levels of DNA DSBs after exogenous metabolite [4]: no further effect | H3K9me3 levels [5]: dose-dependent increase | H3L36me3 levels [5]: dose-dependent increase | induction of sensitivity to PARP inhibitors olaparib and BMN-673 by exogenous metabolite ([2]; metabolite added to culture media (2 mM succinate; 30 or 60 μM dimethyl-fumarate)): induced dramatic sensitivity

N.N.[Cl][Pt][Cl] [cisplatin]
clonogenic survival in response to DNA damaging agent [6]: substantially reduced survival
